Measured values: ChEMBL document CHEMBL4811222, “Antitumor Activity of Asperphenin B by Induction of Apoptosis and Regulation of Glyceraldehyde-3-phosphate Dehydrogenase in Human Colorectal Cancer Cells” (J Nat Prod, 2021)
pIC50: −log10 of the molar value. Activity calls are given as the source filed them. No cut-off for these calls is given here.

Assays:
[1] = test system: RKO; assay: Induction of cell cycle arrest in human RKO cells assessed as accumulation at G2/M phase at 2.5 uM after 12 hrs by RNase A/propidium iodide staining based flow cytometric analysis (reference value: 24.63 %); type: functional
[2] = test system: RKO; assay: Antitumor activity against human RKO cells implanted in BALB/c nude mouse assessed as inhibition of tumor growth at 4 mg/kg, ip administered three times per week for 21 days and measured every 3 to 4 days by electronic caliper method; type: functional; conditions: 504 h, time 21 day, read-out: TGI
[3] = test system: RKO; assay: Antitumor activity against human RKO cells implanted in BALB/c nude mouse assessed as suppression of Ki67 expression level in tumor lysates at 4 to 8 mg/kg, ip administered three times per week for 21 days by Western blotting analysis; type: functional, organism-based; conditions: Neoplasm, dose 4-8 mg/kg, time 21.0 day
[4] = test system: RKO; assay: Induction of cell cycle arrest in human RKO cells assessed as accumulation at sub-G1 phase at 2.5 uM after 24 hrs by RNase A/propidium iodide staining based flow cytometric analysis (reference value: 0.40 %); type: functional
[5] = test system: RKO; assay: Induction of apoptosis in human RKO cells assessed as total apoptotic cells at 5 uM after 48 hrs by Annexin V/PI staining based flow cytometric analysis; type: functional
[6] = test system: CCD-841CoN; assay: Antiproliferative activity against human CCD-841CoN cells assessed as inhibition of cell growth incubated for 72 hrs by SRB assay; type: cell-based
[7] = Toxicity in BALB/c nude mouse implanted with human RKO cells assessed as change in body weight at 4 to 8 mg/kg, ip administered three times per week for 21 days; type: organism-based; conditions: in vivo, 504 h, dose 4-8 mg/kg, time 21 day
[8] = test system: RKO; assay: Induction of apoptosis in human RKO cells assessed as increase in p53 level at 2.5 uM measured upto 48 hrs by Western blotting analysis; type: functional, cell-based; conditions: time hrs <=48
[9] = test system: RKO; assay: Induction of apoptosis in human RKO cells assessed as modulation of p53 expression level after 48 hrs by Western blotting analysis; type: functional, cell-based; conditions: dose 2.5-10 µM
[10] = test system: SW480; assay: Antiproliferative activity against human SW480 cells assessed as inhibition of cell growth incubated for 72 hrs by SRB assay; type: functional, cell-based; conditions: SW480, 72 h
[11] = test system: RKO; assay: Induction of cell cycle arrest in human RKO cells assessed as accumulation at S phase at 2.5 uM after 24 hrs by RNase A/propidium iodide staining based flow cytometric analysis (reference value: 24.20 %); type: functional
[12] = test system: RKO; assay: Induction of cell cycle arrest in human RKO cells assessed as accumulation at sub-G1 phase at 2.5 uM after 24 hrs by RNase A/propidium iodide staining based flow cytometric analysis (reference value: 0.89 %); type: functional
[13] = test system: RKO; assay: Induction of cell cycle arrest in human RKO cells assessed as upregulation of phospho-Chk1 expression at 1.25 to 5 uM measured after 24 hrs by Western blot analysis; type: functional, cell-based; conditions: dose 1.25-5 µM
[14] = test system: RKO; assay: Induction of cell cycle arrest in human RKO cells assessed as inactivation of Cdc25C protein at 1.25 to 5 uM measured after 24 hrs by Western blot analysis; type: functional, cell-based; conditions: dose 1.25-5 µM
[15] = test system: RKO; assay: Antiproliferative activity against human RKO cells assessed as inhibition of cell growth incubated for 72 hrs by SRB assay; type: functional, cell-based
[16] = test system: RKO; assay: Induction of cell cycle arrest in human RKO cells assessed as upregulation of cyclin B1 expression measured after 24 hrs by Western blot analysis; type: functional, cell-based; conditions: dose 1.25-5 µM
[17] = test system: CCD-18Co; assay: Antiproliferative activity against human CCD-18Co cells assessed as inhibition of cell growth incubated for 72 hrs by SRB assay; type: cell-based
[18] = test system: HCT-116; assay: Upregulation of E-cadherin expression in […] at 3 to 6 uM after 24 hrs by Western blotting analysis; type: functional, cell-based; conditions: dose 3-6 µM
[19] = test system: RKO; assay: Induction of cell cycle arrest in human RKO cells assessed as accumulation at G0/G1 phase at 2.5 uM after 24 hrs by RNase A/propidium iodide staining based flow cytometric analysis (reference value: 51.49 %); type: functional
[20] = test system: RKO; assay: Induction of cell cycle arrest in human RKO cells assessed as accumulation at G2/M phase at 2.5 uM after 48 hrs by RNase A/propidium iodide staining based flow cytometric analysis (reference value: 24.63 %); type: functional
[21] = test system: RKO; assay: Induction of apoptosis in human RKO cells assessed as total apoptotic cells at 2.5 uM after 48 hrs by Annexin V/PI staining based flow cytometric analysis; type: functional
[22] = test system: RKO; assay: Induction of cell cycle arrest in human RKO cells assessed as accumulation at G0/G1 phase at 2.5 uM after 36 hrs by RNase A/propidium iodide staining based flow cytometric analysis (reference value: 60.58 %); type: functional
[23] = test system: RKO; assay: Induction of apoptosis in human RKO cells assessed as increase in cleaved PARP expression at 2.5 uM measured upto 48 hrs by Western blotting analysis; type: functional, cell-based; conditions: time hrs <=48
[24] = test system: RKO; assay: Induction of cell cycle arrest in human RKO cells assessed as accumulation at G2/M phase at 1.25 uM after 24 hrs by RNase A/propidium iodide staining based flow cytometric analysis (reference value: 24.38 %); type: functional
[25] = test system: RKO; assay: Induction of cell cycle arrest in human RKO cells assessed as accumulation at sub-G1 phase at 2.5 uM after 12 hrs by RNase A/propidium iodide staining based flow cytometric analysis (reference value: 0.89 %); type: functional
[26] = test system: RKO; assay: Induction of cell cycle arrest in human RKO cells assessed as accumulation at S phase at 5 uM after 24 hrs by RNase A/propidium iodide staining based flow cytometric analysis (reference value: 24.20 %); type: functional
[27] = test system: RKO; assay: Induction of cell cycle arrest in human RKO cells assessed as accumulation at sub-G1 phase at 5 uM after 24 hrs by RNase A/propidium iodide staining based flow cytometric analysis (reference value: 0.40 %); type: functional
[28] = test system: RKO; assay: Suppression of GAPDH protein expression in human RKO cells after 24 hrs by Western blotting analysis; type: functional, cell-based; conditions: dose 2.5-10 µM
[29] = test system: RKO; assay: Antiproliferative activity against human RKO cells over expressing GAPDH at 1 to 8 uM after 72 hrs by SRB assay; type: functional, cell-based; conditions: dose 1-8 µM
[30] = test system: RKO; assay: Induction of cell cycle arrest in human RKO cells assessed as accumulation at sub-G1 phase at 1.25 uM after 24 hrs by RNase A/propidium iodide staining based flow cytometric analysis (reference value: 0.40 %); type: functional
[31] = test system: RKO; assay: Induction of cell cycle arrest in human RKO cells assessed as upregulation of phospho-Chk2 expression at 1.25 to 5 uM measured after 24 hrs by Western blot analysis; type: functional, cell-based; conditions: dose 1.25-5 µM
[32] = test system: HCT-116; assay: Downregulation of Snail expression in […] at 3 to 6 uM after 24 hrs by Western blotting analysis; type: functional, cell-based; conditions: dose 3-6 µM

CCCCCCCCC[C@@H](O)CC(=O)N[C@@H](CC(N)=O)C(=O)N[C@@H](CCC(N)=O)C(=O)N[C@H](CC(=O)c1cc(C)cc(O)c1C(=O)c1c(O)cccc1O)CC(C)C
Activity [1]: 27.91% | inhibition in vivo at 4 mg/kg [2]: 32.8% | Activity [3]: Active | Activity [4]: 0.56% | Activity [5]: 36.58% | pIC50 [6]: 4.33 | Activity [7]: Non-Toxic | Activity [8]: Active | Activity [9]: Dose-Dependent Effect | pIC50 [10]: 5.63 | Activity [11]: 23.35% | Activity [12]: 1.22% | Activity [13]: Active | Activity [14]: Active | Activity [15]: Dose-Dependent Effect | pIC50 [15]: 6.03 | Activity [16]: Dose-Dependent Effect | pIC50 [17]: 4.41 | Activity [18]: Active | Activity [19]: 32.4% | Activity [20]: 41.66% | Activity [21]: 15.14% | Activity [22]: 22.38% | Activity [23]: Active | Activity [24]: 29.42% | Activity [25]: 0.88% | Activity [26]: 22.13% | Activity [27]: 1.1% | Activity [28]: Dose-Dependent Effect | Activity [29]: Active | Activity [30]: 0.41% | Activity [31]: Active | Activity [32]: Active
